From ChEMBL document CHEMBL1201862, “PubChem BioAssay data set” (2004) come the findings set out here.

Active and inactive are the calls of the source.

Broadly, the AC50 is the concentration giving half of the maximal activity seen. Broadly, the EC50 is the concentration giving half of the maximal effect.

Data set [1] is described as follows: Luminescence Cell-Based Dose Retest to Confirm Inhibitors of Cancer Stem Cells. [Related pubchem assays (depositor defined):AID2717, AID2721]. In kind it is functional. To be noted: Homo sapiens.
Data set [2] deals with T1, Small ubiquitin-related modifier 1 (Homo sapiens, UniProt P63165). In words: SUMO1 protein-protein binding blockers, potency – biochemical, FRET, dose response (AID 624383). In kind it is functional. To be noted: read-out: IC50_Mean.
T1 sequence (P63165 whole entry): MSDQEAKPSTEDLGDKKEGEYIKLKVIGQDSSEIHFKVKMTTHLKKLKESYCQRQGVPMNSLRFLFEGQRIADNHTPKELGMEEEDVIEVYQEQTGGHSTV
Data set [3] deals with T1, Small ubiquitin-related modifier 1. The data set is described as follows: SUMO1 protein interaction blockers, potency – biochemical, fluorescence polarization, uHTS hits, dose response (AID 624382). Format: functional. To be noted: read-out: IC50_Mean.
Data set [4] has as its target Photoreceptor-specific nuclear receptor (Homo sapiens, UniProt Q9Y5X4). In kind it is functional, cell-based.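 Further: CHO-S cells with Gal4-NCOR and VP16-NR2E3 two-hybrid luciferase reporter.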
Data set [5] can be described thus: cytotoxicity toward MDA-MB-231 breast cancer cells – cell-based, CellTiter-Glo luminescence, cherry-pick, cytotoxicity control for RAD54 inhibitor project, dose response (AID 651692). In kind it is functional. On the technique in general: Cellular ATP, detected with luciferase, serves as a proxy for viable cell number.
Data set [6] has as its target T2, DNA repair and recombination protein RAD54-like (Homo sapiens, UniProt Q92698).
T2 sequence (Q92698 whole entry): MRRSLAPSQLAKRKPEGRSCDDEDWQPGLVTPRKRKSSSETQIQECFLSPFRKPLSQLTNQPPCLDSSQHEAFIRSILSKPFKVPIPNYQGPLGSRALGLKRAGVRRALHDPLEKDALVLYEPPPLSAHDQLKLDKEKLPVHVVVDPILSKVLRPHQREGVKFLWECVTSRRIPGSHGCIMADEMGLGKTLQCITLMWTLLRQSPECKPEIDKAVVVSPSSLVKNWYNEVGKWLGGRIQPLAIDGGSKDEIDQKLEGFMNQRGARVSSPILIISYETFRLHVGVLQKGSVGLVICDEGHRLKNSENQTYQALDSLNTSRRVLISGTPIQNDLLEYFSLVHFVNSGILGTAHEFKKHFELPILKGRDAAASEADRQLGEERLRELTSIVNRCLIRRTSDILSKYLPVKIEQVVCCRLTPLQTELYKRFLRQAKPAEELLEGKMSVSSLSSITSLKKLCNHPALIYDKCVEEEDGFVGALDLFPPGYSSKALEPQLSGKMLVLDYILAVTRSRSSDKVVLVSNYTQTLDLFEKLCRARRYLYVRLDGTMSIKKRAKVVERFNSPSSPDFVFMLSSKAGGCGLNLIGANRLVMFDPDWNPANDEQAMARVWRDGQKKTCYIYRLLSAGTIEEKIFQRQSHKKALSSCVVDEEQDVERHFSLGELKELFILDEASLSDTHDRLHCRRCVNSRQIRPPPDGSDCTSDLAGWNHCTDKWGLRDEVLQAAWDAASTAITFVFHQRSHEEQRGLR
In words: RAD54 Holliday junction migration blockers – biochemical, fluorescence, cherry-picked samples, dose series, confirmation (AID 651657). In kind it is functional.

The target of data set [7] is T3, DNA repair protein RAD52 homolog (Homo sapiens, UniProt P43351).
T3 sequence (P43351 whole entry): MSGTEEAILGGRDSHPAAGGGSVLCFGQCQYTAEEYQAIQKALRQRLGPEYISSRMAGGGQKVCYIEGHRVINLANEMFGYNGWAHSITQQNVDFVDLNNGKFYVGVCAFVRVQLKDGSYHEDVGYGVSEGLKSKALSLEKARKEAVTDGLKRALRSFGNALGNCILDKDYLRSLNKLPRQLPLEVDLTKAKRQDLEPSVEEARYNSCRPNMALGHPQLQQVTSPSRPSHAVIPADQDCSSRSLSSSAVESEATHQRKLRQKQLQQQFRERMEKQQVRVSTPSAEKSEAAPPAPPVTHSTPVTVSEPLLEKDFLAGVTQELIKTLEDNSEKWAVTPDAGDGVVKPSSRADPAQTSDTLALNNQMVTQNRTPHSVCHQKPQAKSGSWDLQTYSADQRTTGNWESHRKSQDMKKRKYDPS
In kind it is functional, biochemical.

For data set [8], the target named is Intestinal-type alkaline phosphatase (Homo sapiens, UniProt P09923). In words: inhibition of human intestinal alkaline phosphatase – biochemical, dose response (AID 488876). In kind it is functional.
Sequence of Intestinal-type alkaline phosphatase (Homo sapiens, UniProt P09923) (P09923 whole entry): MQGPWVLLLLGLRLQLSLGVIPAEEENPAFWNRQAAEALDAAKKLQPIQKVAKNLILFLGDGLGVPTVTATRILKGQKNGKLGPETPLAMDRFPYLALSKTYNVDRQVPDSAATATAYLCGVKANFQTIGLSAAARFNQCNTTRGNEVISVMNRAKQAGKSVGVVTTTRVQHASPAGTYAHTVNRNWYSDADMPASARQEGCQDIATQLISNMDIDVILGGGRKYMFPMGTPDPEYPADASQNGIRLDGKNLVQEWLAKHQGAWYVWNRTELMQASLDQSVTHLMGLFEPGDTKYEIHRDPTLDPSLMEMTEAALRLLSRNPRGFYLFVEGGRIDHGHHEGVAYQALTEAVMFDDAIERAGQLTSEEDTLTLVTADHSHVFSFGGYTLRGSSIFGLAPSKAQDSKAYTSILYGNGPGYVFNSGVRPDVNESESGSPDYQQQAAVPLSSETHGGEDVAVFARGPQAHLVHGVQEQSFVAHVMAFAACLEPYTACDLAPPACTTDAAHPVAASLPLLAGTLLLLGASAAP
In a further data set the test system is INS1. The data set is described as follows: INS-1E survival protection against cytokine death – cell-based, luminescence, retest, dose response (AID 449756).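 Further: cell death triggered by IL-1 beta plus TNF-alpha plus IFN-gamma mixture; protective hits raise ATP signal compared with cytokine alone wells.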 Format: functional. To be noted: Rattus norvegicus.
A short description of data set [9]: viability of HCT116 lacking mutant beta-catenin – cell-based, human colon tumor, dose response (AID 1045).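 Further: HCT116 colon tumor cells with beta catenin knocked out; cells exposed to compound for 60 hours.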 Format: functional.
The target in a further data set is Cytochrome P450 2C9 (Homo sapiens, UniProt P11712).
Sequence of Cytochrome P450 2C9 (P11712 whole entry): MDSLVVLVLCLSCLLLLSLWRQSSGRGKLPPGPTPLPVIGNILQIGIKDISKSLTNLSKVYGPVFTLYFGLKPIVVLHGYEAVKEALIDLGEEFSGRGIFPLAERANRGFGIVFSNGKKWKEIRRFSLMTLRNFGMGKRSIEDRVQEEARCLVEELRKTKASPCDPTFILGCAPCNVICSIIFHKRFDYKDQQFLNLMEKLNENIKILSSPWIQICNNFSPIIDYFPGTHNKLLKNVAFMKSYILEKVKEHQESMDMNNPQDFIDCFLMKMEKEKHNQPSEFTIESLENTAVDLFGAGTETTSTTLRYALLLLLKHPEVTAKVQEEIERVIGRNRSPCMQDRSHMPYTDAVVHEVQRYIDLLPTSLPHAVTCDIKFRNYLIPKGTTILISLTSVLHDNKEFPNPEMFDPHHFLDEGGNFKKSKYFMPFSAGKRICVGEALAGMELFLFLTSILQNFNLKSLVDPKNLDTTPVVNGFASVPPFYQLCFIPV
The target in the next data set is T4, Cytochrome P450 1A2 (Homo sapiens, UniProt P05177).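 Further: PubChem cytochrome P450 panel assay, CYP1A2 panel member.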
T4 sequence (P05177 whole entry): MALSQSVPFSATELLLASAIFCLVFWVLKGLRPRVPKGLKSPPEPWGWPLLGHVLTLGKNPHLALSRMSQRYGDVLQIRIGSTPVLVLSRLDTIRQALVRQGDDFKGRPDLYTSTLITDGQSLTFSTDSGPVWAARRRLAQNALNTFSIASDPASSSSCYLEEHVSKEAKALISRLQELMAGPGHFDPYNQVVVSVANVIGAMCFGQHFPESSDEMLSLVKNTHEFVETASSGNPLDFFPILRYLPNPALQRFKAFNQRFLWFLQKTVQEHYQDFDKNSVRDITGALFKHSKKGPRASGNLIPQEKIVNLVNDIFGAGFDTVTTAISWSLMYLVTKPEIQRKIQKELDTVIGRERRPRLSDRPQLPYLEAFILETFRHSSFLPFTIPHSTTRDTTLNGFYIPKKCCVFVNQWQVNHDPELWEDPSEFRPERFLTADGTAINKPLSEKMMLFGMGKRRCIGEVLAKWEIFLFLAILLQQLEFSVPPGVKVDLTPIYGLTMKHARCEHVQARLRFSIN

Data set [10] has as its target Hepatocyte nuclear factor 4-alpha (Homo sapiens, UniProt P41235). In kind it is functional, cell-based.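 Further: biochemical luminescence-based dose-response counterscreen measuring inhibition of HNF4 dimerization, run alongside a screen for blockers of ABHD5–perilipin-5 interaction; split luciferase complementation of HNF4 fusion proteins in cell lysate measuring dimerization.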
The target of data set [11] is Intestinal-type alkaline phosphatase (Mus musculus, UniProt P24822). The data set is described as follows: PubChem AID 488785. Format: functional.
Sequence of Intestinal-type alkaline phosphatase (Mus musculus, UniProt P24822) (P24822 whole entry): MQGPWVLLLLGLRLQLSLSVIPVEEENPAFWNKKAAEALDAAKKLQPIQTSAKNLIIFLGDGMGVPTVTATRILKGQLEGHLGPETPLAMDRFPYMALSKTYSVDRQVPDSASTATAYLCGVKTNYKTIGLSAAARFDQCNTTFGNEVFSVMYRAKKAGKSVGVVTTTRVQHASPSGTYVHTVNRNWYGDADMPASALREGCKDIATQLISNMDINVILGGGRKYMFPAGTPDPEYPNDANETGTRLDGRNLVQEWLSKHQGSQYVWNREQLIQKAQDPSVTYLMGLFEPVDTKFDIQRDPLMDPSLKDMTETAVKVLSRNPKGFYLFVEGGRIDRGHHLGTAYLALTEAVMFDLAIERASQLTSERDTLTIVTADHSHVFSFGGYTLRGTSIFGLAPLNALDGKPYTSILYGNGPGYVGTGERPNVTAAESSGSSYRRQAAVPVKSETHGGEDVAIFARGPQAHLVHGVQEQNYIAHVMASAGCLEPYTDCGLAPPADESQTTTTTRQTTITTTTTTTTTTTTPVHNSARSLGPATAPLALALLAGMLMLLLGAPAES
The nature of data set [12]: viability of PTEN-deleted HCT116 cells – cell-based, HCT116 PTEN knockout, dose response (AID 1047).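 Further: HCT116 colon tumor cells with PTEN knocked out; cells exposed to compound for 60 hours before readout; potency for loss of cell viability measured by luminescence.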 Format: functional.
The target in data set [13] is T5, Alkaline phosphatase, tissue-nonspecific isozyme (Homo sapiens, UniProt P05186).
T5 sequence (P05186 whole entry): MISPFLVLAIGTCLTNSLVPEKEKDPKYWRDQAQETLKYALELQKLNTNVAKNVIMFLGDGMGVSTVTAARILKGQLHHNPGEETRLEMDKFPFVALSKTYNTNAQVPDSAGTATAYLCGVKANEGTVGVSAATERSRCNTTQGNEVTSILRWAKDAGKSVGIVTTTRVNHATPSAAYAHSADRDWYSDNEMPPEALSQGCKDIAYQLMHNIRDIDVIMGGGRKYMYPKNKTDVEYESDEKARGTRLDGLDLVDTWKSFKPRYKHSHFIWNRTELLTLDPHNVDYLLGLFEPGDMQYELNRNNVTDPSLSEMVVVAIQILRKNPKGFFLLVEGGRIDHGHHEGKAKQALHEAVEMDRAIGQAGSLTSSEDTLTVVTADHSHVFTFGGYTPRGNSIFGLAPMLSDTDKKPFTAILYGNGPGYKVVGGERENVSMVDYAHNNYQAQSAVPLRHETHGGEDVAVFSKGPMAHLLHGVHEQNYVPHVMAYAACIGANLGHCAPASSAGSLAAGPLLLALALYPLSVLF
The data set is described as follows: TNAP enzyme inhibition by screening hits, dose response, selectivity assay for mouse IAP inhibitor project, biochemical, human TNAP, uHTS hits (AID 488906). Format: functional.

For data set [14], the target named is Tyrosine-protein phosphatase non-receptor type 5 (Homo sapiens, UniProt P54829). The data set is described as follows: PTPN5 enzyme inhibition – biochemical, fluorescence intensity, uHTS hits, confirmation (AID 602372). Format: functional. As to conditions: read-out: IC50_Mean.
Sequence of Tyrosine-protein phosphatase non-receptor type 5 (P54829 whole entry): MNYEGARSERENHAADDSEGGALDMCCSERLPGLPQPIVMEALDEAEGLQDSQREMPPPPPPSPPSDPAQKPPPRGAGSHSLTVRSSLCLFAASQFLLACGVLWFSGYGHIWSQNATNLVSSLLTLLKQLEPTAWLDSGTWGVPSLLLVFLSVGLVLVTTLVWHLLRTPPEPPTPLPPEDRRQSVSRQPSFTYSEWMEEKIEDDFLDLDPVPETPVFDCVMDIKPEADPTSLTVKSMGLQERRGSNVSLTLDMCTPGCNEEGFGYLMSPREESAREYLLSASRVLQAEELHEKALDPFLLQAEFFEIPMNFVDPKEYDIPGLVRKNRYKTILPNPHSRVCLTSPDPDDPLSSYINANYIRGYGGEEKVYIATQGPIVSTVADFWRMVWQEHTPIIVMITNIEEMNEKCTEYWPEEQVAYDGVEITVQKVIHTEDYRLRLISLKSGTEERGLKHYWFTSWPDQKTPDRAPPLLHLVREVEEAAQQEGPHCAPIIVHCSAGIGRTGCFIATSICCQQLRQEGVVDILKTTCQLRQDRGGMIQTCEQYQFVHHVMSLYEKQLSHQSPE
Data set [15] deals with T6, Tyrosine-protein phosphatase non-receptor type 22 (Homo sapiens, UniProt Q9Y2R2).
T6 sequence (Q9Y2R2 whole entry): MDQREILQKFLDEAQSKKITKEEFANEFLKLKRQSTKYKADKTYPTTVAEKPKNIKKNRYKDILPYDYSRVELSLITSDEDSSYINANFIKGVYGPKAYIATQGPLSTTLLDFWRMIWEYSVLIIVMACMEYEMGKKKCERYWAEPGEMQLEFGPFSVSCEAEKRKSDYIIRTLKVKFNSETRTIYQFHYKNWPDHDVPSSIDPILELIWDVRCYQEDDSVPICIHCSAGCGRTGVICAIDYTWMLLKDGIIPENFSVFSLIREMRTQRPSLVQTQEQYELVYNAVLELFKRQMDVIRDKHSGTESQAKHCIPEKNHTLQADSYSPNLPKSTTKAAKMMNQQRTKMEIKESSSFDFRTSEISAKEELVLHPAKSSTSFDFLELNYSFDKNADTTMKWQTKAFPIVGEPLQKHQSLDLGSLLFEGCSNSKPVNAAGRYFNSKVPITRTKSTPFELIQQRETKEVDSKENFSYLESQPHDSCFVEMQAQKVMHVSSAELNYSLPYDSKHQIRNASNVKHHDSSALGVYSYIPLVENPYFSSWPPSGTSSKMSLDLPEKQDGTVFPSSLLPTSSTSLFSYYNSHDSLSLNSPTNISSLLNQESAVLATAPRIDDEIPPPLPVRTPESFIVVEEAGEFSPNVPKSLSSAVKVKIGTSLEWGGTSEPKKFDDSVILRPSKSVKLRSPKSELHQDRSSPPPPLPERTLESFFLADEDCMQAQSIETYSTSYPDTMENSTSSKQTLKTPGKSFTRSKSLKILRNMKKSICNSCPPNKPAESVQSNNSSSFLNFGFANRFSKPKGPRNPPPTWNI
In words: lymphoid phosphatase LYP inhibitors – biochemical, selectivity assay for STEP inhibitor project, dose response (AID 624241). Format: functional.

Data set [16] concerns the target Tyrosine-protein phosphatase non-receptor type 11 (Homo sapiens, UniProt Q06124). The data set is described as follows: PTPN11 enzyme inhibitors – biochemical, selectivity assay for STEP inhibitor project, dose response (AID 602367). To be noted: read-out: IC50_Mean. In kind it is functional.
Data set [17] has as its target Dual specificity protein phosphatase 3 (Homo sapiens, UniProt P51452). The data set is described as follows: VHR phosphatase inhibition, dose response, selectivity assay for STEP inhibitor project, biochemical (AID 602374). In kind it is functional. As to conditions: read-out: IC50_Mean.

Sequence of Dual specificity protein phosphatase 3 (P51452 whole entry): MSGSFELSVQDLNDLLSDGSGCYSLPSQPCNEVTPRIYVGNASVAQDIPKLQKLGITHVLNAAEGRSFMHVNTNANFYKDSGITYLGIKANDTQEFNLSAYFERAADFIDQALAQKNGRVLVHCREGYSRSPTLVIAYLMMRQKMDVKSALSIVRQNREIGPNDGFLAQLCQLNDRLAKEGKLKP
Sequence of Tyrosine-protein phosphatase non-receptor type 11 (Q06124 whole entry): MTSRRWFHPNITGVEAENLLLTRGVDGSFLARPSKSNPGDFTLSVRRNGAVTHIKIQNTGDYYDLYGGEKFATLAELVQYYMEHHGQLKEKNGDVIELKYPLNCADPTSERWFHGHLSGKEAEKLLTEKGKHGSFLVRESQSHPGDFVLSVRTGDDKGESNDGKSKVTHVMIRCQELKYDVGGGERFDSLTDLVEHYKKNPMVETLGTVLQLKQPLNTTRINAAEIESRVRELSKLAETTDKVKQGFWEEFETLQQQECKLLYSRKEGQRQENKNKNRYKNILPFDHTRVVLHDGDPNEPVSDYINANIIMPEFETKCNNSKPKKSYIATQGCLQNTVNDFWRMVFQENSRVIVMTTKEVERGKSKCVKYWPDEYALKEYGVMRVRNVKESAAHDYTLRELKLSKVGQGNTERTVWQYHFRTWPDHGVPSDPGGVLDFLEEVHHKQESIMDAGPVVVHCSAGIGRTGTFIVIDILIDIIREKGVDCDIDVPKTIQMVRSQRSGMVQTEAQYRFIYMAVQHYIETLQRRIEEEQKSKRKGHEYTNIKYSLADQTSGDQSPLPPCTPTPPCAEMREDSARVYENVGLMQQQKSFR
Sequence of Photoreceptor-specific nuclear receptor (Q9Y5X4 whole entry, the tested form may be a part): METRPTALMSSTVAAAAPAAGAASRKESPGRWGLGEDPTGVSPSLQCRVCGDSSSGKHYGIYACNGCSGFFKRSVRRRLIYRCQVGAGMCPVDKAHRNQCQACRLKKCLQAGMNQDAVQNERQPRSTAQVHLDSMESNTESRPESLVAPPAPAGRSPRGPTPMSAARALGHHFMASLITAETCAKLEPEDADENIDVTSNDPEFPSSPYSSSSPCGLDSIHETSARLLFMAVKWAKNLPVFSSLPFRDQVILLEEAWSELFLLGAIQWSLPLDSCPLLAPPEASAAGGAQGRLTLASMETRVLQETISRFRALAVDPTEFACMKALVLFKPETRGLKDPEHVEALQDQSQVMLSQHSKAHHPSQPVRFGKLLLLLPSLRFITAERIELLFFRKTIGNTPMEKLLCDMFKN
Sequence of Hepatocyte nuclear factor 4-alpha (P41235 whole entry, the tested form may be a part): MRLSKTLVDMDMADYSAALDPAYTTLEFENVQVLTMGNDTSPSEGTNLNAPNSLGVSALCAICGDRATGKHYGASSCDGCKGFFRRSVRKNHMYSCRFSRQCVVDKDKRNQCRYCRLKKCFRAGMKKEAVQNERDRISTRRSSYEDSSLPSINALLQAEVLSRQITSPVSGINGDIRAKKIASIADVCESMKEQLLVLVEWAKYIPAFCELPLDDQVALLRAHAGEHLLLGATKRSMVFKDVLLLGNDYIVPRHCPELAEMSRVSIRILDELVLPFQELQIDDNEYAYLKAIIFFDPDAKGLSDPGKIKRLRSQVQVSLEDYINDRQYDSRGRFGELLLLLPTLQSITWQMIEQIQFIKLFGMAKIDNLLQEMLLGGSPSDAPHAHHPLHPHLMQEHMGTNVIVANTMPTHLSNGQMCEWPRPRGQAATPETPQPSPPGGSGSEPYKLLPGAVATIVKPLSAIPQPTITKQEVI

For the molecule `CCc1ccccc1Nc1nn2c(=O)c3ccc(C(=O)NCc4ccccn4)cc3nc2s1`, the AC50 in data set [1] was 0.343 µM (active). Further, the figures for the IC50 in [2], in data set [3] and in data set [4] were 10.4 µM (active), > 66.6 µM (inactive) and 13.1 µM (inactive), respectively.

Consider `COc1ccc(-c2oc3ncnc(NCCCN(C)C)c3c2-c2ccc(OC)cc2)cc1`, for which the AC50 was 12.9 µM (active) in data set [5], 21.7 µM (active) in data set [6] and 3.48 µM (active) in [7].

`CCOc1cc(/C=C2\CCC/C(=C\c3cc(Cl)c(O)c(OCC)c3)C2=O)cc(Cl)c1O`: the IC50 in data set [8] was > 100 µM (inactive); in [10], 6.46 µM (active); in data set [11], 7.08 µM (active); in data set [13], > 100 µM (inactive). Further, the AC50 in the data set with INS1 was 8.02 µM (active); at Cytochrome P450 2C9 it was “inconclusive”; on Cytochrome P450 1A2 it was 10 µM (inconclusive). Moreover, the EC50 in data set [9] was 2.23 µM (active); in [12], 2.24 µM (active).

For the molecule `CC1=C(C(=O)OC(C)C)C(c2ccc(Cl)cc2)n2c(s/c(=C\c3ccc(OCC(=O)O)cc3)c2=O)=N1` (configuration not stated), the IC50 in data set [14] was 4.68 µM (active); in data set [15], 14.7 µM (active); in [2], 7.22 µM (active); in data set [16], 3.24 µM (active); in [17], 3.02 µM (active); in data set [3], > 66.6 µM (inactive).
